What was measured:
[1] = tested on: total serum bilirubin (TSB); assay: Phase 2b randomized, placebo-controlled trial of single IM stannsoporfin with phototherapy: efficacy on TSB; format: in vivo, human infants; settings: for Rebound Hyperbilirubinemia N: TSB at or above PT threshold after discontinuation of initial PT; for LS Mean Difference vs Placebo in TSB at 48 hrs: difference in TSB percentage change from baseline vs placebo plus phototherapy; for PT Failure N: exchange transfusion, IVIG use, readmission for hyperbilirubinemia or re-started PT; for Time at which TSB crosses at or below the PT threshold, Median: plus phototherapy; for LS Mean Percentage Change in TSB at 48 hrs: single IM injection plus phototherapy, change from baseline, LOCF
Experimental: (§1) A Phase 2b multicenter, double-blind, randomized, placebo-controlled parallel group safety and efficacy trial of two doses of stannsoporfin administered as a single intramuscular injection in combination with phototherapy in term and near-term infants has been proposed and performed.
(§2) Infants will be randomized to one of three treatment arms: placebo, 3.0 mg/kg, or 4.5 mg/kg of stannsoporfin in a 1:1:1 ratio. Infants aged 0 to 48 hours (at the time the qualifying TSB is drawn) with ABO or Rh incompatibility who are DAT-positive, or age 0 to 72 hours (at the time the qualifying TSB is drawn) with G6PD deficiency, confirmed by a documented blood test, who require the initiation of phototherapy are eligible for the study. In addition, patients aged 0 to 48 hours (at the time the qualifying TSB is drawn) with ABO or Rh incompatibility who are DAT negative (or status unknown), and have an increased reticulocyte count (>6%), and require the initiation of phototherapy are eligible for the study.
Inclusion Criteria: 1) Term and near-term infants ≥35 and ≤43 weeks gestational age (GA), age 0-48 hours (at the time the qualifying TSB is drawn) with ABO or Rh incompatibility (anti C, c, D, E or e) who are DAT-positive, or age 0-72 hours (at the time the qualifying TSB is drawn) with G6PD deficiency as confirmed by a documented blood test; OR 2) Term and near-term infants ≥35 and ≤43 weeks GA, age 0-48 hours (at the time the qualifying TSB is drawn) with ABO or Rh incompatibility (anti C, c, D, E or e) who are DAT-negative (or status unknown) and have an increased reticulocyte count (>6%); parental or guardian written consent; birth weight ≥2500 grams; TSB at or above the age-specific threshold for initiating phototherapy per the AAP guidelines (see FIG. 1 and Tables 1, 2 and 3); and parents agree to observe light precautions for 10 days post treatment
Once the patient's TSB is at or above the age-specific threshold for phototherapy and all inclusion and no exclusion criteria are met (including laboratory criteria), patients will be immediately randomized to receive a single intramuscular dose of either placebo (saline), 3.0 mg/kg of stannsoporfin or 4.5 mg/kg of stannsoporfin.
Criteria for discontinuing phototherapy: The criteria for discontinuing phototherapy will be standardized. If a TSB measurement is obtained during phototherapy treatment that is below the age-specific threshold for phototherapy (FIG. 1), phototherapy should be discontinued. In order to check for rebound hyperbilirubinemia, a TSB level is to be obtained between 6 and 12 hours after phototherapy is discontinued (must be done before discharge). If the patient remains in the hospital and continues on phototherapy past 48 hours further assessments and procedures are to be conducted as listed in the Time and Event Table (Table 8).
Initiation of Phototherapy: Once the TSB result has been received, the administration of study drug and initiation of phototherapy should occur as soon as practical. phototherapy should be started within a window of no more than ±30 minutes from IMP administration.
Phototherapy must be narrow spectrum blue light with a single overhead unit. The height of the phototherapy unit should be adjusted to obtain an irradiance of 30 microwatts/cm2/nm at the level of the patient's abdomen. Irradiance should be measured and adjusted to maintain 30 microwatts/cm2/nm, until phototherapy is discontinued. The recordings are to be documented in the eCRF.
Monitoring during phototherapy: It is essential to protect the patient's eyes with opaque eye patches. These must be checked periodically to ensure complete eye coverage during phototherapy. Use of biliblankets or home phototherapy is not permitted. TSB levels will be done at 6, 12, 18, 24, 30, 36±2 h, and 48 hours±6 h after study drug administration (Table 8). If the patient continues on phototherapy past 48 hours, the TSB will be obtained every 12±6 h. […]

[2] = Phase 2b trial of stannsoporfin with phototherapy: safety (adverse events); format: in vivo, human infants
Experimental: as §1, §2
Safety outcome measures are: Incidence of adverse events and serious adverse events, changes in vital sign measurements, results of physical exam (PE) including eye and hearing assessment, results of neurologic exam, ECG assessments, clinical laboratory tests including hematology, serum chemistries, liver function and renal function tests. Adverse events and SAEs will be summarized for each treatment group and overall for both stannsoporfin treatment groups with the proportion of patients reporting each event. Actual values and change from baseline in vital signs, physical and neurologic exam and laboratory test parameters will be summarized for each treatment group and overall for both stannsoporfin treatment groups with descriptive statistics at each assessment obtained. Changes in ECG findings, ophthalmologic and audiology assessments will be summarized for each treatment group and overall for both stannsoporfin treatment groups with descriptive statistics at each assessment obtained, including changes from baseline to Day 30 (early term). Efficacy and safety parameters will also be analyzed according to DAT status.
The results from a Phase 2b multicenter, double blind, randomized, placebo controlled parallel group safety and efficacy trial of two doses of stannsoporfin administered as a single intramuscular (IM) injection in combination with phototherapy (PT) in term and near-term infants, all with an ABO/Rh incompatibility were highly statistically significant and positive. Ninety-one neonates (aged 24 hours of age, range 7 to 54 hours), all at medium to high risk of severe hyperbilirubinemia, all with an ABO/Rh incompatibility, birth weights of 2580 to 4930 grams, and gestational age of 35 to 42 weeks, were randomized to one of three treatment arms: placebo (saline), 3.0 mg/kg stannsoporfin, or 4.5 mg/kg of stannsoporfin. All were included in the intent-to-treat-primary efficacy and safety analyses.
TEAEs occurred in 59% of Stannsoporfin treated infants vs 52% among placebo. Serious TEAEs occurred in 15% of Stannsoporfin treated infants vs 20% of placebo. TEAEs related to phototherapy (eg skin rash, erythema) occurred in 16% of Stannsoporfin treated infants vs 10% of placebo.

[3] = tested on: total serum bilirubin (TSB); settings: 3.0 and 4.5 mg/kg stannsoporfin patients receiving phototherapy; previous study (placebo 41%); cited from earlier work
[4] = Stannsoporfin 3.0 mg/kg (N = 30)
[5] = Stannsoporfin 4.5 mg/kg (N = 31)
[6] = Stannsoporfin Combined (N = 61)
[7] = both high dose (4.5 mg/kg) and low dose (3.0 mg/kg), compared with phototherapy and placebo
[8] = all treatment arms of the trial

CCC1=C(C)c2cc3[n-]c(cc4[n-]c(cc5nc(cc1n2)C(C)=C5CC)c(C)c4CCC(=O)O)c(CCC(=O)O)c3C.[Cl-].[Cl-].[Sn+4] [Stannsoporfin, tin-mesoporphyrin IX dichloride]
PT Failure (%) [1, 4]: (10%)
PT Failure Odds Ratio vs Placebo [1, 4]: 0.31
Rebound Hyperbilirubinemia (%) [1, 4]: (9%)
Rebound Hyperbilirubinemia N [1, 4]: 0/30
LS Mean Difference vs Placebo in TSB at 48 hrs [1, 4]: −31.69
PT Failure N [1, 4]: 3/30
Time at which TSB crosses at or below the PT threshold, Median [1, 4]: 11.8 h
LS Mean Percentage Change in TSB at 48 hrs [1, 4]: −9.5%
PT Failure (%) [1, 5]: (3%)
PT Failure Odds Ratio vs Placebo [1, 5]: 0.09
Rebound Hyperbilirubinemia (%) [1, 5]: (3%)
Rebound Hyperbilirubinemia N [1, 5]: 1/31
LS Mean Difference vs Placebo in TSB at 48 hrs [1, 5]: −27.69
PT Failure N [1, 5]: 1/31
Time at which TSB crosses at or below the PT threshold, Median [1, 5]: 10.6 h
LS Mean Percentage Change in TSB at 48 hrs [1, 5]: −5.5%
PT Failure (%) [1, 6]: (7%)
PT Failure Odds Ratio vs Placebo [1, 6]: 0.20
Rebound Hyperbilirubinemia (%) [1, 6]: (2%)
Rebound Hyperbilirubinemia N [1, 6]: 1/61
LS Mean Difference vs Placebo in TSB at 48 hrs [1, 6]: −29.69
PT Failure N [1, 6]: 4/61
Time at which TSB crosses at or below the PT threshold, Median [1, 6]: 11.6 h
LS Mean Percentage Change in TSB at 48 hrs [1, 6]: −7.4%
effect on percentage change in total serum bilirubin (TSB) at 24 hours after drug administration [1, 7]: highly statistically significant (P<0.0001) positive effect
effect on percentage change in total serum bilirubin (TSB) at 48 hours after drug administration [1, 7]: highly significant (P<0.0001) positive effect
effect on percentage change in total serum bilirubin (TSB) at 48 hours after drug administration ([1]; both high dose (4.5 mg/kg) and low dose (3.0 mg/kg), compared with phototherapy and placebo, listed as stannsoporfin): statistically significant positive effect
Serious TEAEs, proportion of infants ([2]; Stannsoporfin treated infants (both doses) plus phototherapy, vs 20% of placebo): 15%
treatment-emergent adverse events (TEAEs), proportion of infants ([2]; Stannsoporfin treated infants (both doses) plus phototherapy, vs 52% among placebo): 59%
TEAEs related to phototherapy (eg skin rash, erythema), proportion of infants ([2]; Stannsoporfin treated infants (both doses), vs 10% of placebo): 16%
discontinuation of the study due to an adverse event [2, 8]: no infant discontinued the study due to an adverse event
infant deaths [2, 8]: no infant deaths
safety signals ([2]; either dose (3.0 or 4.5 mg/kg)): no safety signals
increase in TSB at 48 hours [3]: 15%
